In ChEMBL document CHEMBL1201862, “PubChem BioAssay data set” (2004) one finds EC50, AC50 and IC50 data, which are given here for 8 molecules.

Usually EC50 stands for the concentration needed to bring the measured effect to its halfway point. What is called AC50 is the concentration at which the activity in the assay is half-maximal. For orientation: IC50 means the concentration needed to halve the response being measured.

The target in assay [1] is Delta-type opioid receptor (Homo sapiens, UniProt P41143). Nature of the assay: Counterscreen for agonists of heterodimerization of the mu 1 (OPRM1) and delta 1 (OPRD1) opioid receptors: Luminescence-based cell-based high throughput dose response assay to identify agonists of OPRD1 homodimerization. [Related pubchem assays (depositor defined):AID504326, AID504355, AID504692, AID504904, AID504905]. Type of assay: functional. A general note: Counterscreens check selectivity or assay interference.

Assay [2] addresses Mu-type opioid receptor (Homo sapiens, UniProt P35372). Nature of the assay: Counterscreen for agonists of heterodimerization of the mu 1 (OPRM1) and delta 1 (OPRD1) opioid receptors: Luminescence-based cell-based high throughput dose response assay to identify agonists of OPRM1 homodimerization. Type of assay: functional.
Assay [3] addresses 5-hydroxytryptamine receptor 5A (Homo sapiens, UniProt P47898). Nature of the assay: Counterscreen for agonists of OPRM1-OPRD1 heterodimerization: luminescence-based cell-based high throughput dose response assay to identify agonists of 5-hydroxytryptamine (serotonin) 5A receptor (HTR5A). [Related pubchem assays (depositor defined):AID504326, AID504355, AID504692, AID504904, AID504905]. Format: functional.

The subject of assay [4] is HeLa. The experiment in a line: HeLa cell cytotoxicity, dose response, cytotoxicity control for MITF activator project, CellTiter-Glo luminescence, cherry-pick samples (AID 540259). Type of assay: functional, cell-based. As to conditions: Homo sapiens. On the technique in general: Cellular ATP, detected with luciferase, serves as a proxy for viable cell number.
Assay [5] addresses T1, Protein skinhead-1 (Caenorhabditis elegans, UniProt P34707).
T1 sequence (P34707 whole entry): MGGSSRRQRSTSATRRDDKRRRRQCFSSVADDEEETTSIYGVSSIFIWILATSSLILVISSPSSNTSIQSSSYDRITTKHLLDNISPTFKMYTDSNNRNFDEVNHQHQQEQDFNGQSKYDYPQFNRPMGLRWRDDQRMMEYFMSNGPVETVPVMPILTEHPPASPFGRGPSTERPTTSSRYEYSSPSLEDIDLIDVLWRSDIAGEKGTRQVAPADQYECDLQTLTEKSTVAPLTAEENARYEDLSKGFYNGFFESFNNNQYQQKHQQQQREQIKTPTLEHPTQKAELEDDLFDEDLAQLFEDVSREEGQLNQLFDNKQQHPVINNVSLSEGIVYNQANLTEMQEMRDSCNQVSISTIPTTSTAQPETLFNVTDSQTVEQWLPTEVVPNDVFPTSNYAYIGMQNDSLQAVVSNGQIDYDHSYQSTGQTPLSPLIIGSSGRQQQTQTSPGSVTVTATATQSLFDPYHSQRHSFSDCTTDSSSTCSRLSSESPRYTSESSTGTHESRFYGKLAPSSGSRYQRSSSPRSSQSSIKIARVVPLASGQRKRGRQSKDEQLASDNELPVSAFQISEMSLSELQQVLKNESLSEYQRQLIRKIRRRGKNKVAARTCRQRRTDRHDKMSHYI
Type of assay: functional.

The target in assay [6] is T2, Phospholipase D1 (Homo sapiens, UniProt Q13393).
T2 sequence (Q13393 whole entry): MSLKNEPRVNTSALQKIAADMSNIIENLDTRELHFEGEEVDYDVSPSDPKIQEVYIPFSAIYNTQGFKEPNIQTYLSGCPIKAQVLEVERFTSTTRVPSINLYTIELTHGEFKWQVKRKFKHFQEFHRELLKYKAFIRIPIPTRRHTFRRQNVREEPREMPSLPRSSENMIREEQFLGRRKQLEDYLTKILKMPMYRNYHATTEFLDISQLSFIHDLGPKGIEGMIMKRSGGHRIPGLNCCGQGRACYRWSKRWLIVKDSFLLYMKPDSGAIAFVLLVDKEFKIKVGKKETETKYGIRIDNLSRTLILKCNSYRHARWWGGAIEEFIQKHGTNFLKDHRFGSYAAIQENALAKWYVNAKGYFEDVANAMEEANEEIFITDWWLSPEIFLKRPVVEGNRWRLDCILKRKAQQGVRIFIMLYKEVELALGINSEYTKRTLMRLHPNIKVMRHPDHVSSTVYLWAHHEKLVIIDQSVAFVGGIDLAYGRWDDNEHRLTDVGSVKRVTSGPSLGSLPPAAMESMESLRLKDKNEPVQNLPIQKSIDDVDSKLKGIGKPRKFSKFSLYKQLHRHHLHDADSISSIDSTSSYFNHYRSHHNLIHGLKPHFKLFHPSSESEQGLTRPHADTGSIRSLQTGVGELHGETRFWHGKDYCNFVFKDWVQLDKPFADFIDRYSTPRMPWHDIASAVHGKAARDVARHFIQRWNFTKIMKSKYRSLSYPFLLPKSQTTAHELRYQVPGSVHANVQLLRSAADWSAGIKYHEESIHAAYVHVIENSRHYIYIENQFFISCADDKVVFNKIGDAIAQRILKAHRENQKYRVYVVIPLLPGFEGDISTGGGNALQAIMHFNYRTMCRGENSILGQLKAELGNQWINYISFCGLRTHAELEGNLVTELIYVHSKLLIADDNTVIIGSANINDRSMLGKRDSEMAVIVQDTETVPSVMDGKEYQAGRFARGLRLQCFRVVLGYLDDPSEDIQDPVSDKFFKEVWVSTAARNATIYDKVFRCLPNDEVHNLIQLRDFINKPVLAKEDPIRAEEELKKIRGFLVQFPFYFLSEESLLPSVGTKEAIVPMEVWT
The experiment in a line: PLD1 inhibitor potency in cells, dose response (AID 602151).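 Note: cellular PLD1 assay in Calu-1 cells stimulated with PMA.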 Type of assay: functional.

The target of assay [7] is Phospholipase D2 (Homo sapiens, UniProt O14939). Nature of the assay: PLD2 inhibitor potency in cells, dose response (AID 602147).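 Note: cellular assay in HEK293 cells overexpressing GFP-tagged PLD2.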 Format: functional.
Assay [8] has as its target FAD-linked sulfhydryl oxidase ALR (Homo sapiens, UniProt P55789). Nature of the assay: inhibitors of human ALR sulfhydryl oxidase, dose response, biochemical, H2O2 detection, luminescence, cherry-pick (AID 493248).
For assay [9], the target named is Dual specificity protein kinase CLK1 (Homo sapiens, UniProt P49759). The experiment in a line: CLK1 kinase inhibitors, off-target check, dose response, selectivity assay for Dyrk1A inhibitor project, biochemical, cherry-picked samples (AID 588811).
Assay [10] concerns the target Dual specificity tyrosine-phosphorylation-regulated kinase 1A (Rattus norvegicus, UniProt Q63470). Type of assay: biochemical, Homo sapiens.
The target in assay [11] is T3, Insulin-degrading enzyme (Homo sapiens, UniProt P14735).
T3 sequence (P14735 whole entry): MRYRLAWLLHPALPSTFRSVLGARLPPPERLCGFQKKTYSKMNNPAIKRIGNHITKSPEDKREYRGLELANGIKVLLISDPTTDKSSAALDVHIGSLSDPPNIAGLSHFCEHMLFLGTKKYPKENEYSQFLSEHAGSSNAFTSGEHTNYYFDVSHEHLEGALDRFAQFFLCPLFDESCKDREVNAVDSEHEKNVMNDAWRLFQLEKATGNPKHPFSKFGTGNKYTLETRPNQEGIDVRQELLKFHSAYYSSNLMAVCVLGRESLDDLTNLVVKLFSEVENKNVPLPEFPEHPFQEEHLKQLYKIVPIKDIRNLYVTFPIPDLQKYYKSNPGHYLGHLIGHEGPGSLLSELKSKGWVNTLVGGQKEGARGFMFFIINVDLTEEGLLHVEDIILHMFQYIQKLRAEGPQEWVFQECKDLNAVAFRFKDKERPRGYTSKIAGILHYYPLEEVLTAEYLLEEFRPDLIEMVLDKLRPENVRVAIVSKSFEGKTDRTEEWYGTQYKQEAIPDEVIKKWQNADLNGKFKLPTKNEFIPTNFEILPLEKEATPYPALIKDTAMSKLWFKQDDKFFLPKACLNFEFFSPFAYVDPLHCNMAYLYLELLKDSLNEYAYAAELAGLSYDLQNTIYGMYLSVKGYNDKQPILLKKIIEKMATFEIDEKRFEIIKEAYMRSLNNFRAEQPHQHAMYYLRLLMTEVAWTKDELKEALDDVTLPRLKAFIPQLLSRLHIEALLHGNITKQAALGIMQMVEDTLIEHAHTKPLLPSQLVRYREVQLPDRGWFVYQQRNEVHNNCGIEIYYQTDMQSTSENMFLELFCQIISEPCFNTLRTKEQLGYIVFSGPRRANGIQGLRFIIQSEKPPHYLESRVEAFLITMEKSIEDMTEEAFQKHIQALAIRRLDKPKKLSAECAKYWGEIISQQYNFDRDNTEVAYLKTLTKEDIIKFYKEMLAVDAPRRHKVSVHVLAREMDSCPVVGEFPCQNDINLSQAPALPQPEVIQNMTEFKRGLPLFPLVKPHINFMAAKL
The experiment in a line: activators of recombinant IDE enzyme, dose response, counter-screen for IDE activator project, biochemical, fluorescence polarization (AID 588681).

The target in assay [12] is T3, Insulin-degrading enzyme. Nature of the assay: activators of endogenous IDE in HEK cells, dose response, cell-based, fluorescence polarization (AID 588439). Type of assay: functional. Background: Fluorescence polarisation rises when a labelled molecule tumbles more slowly, as on binding a larger partner.
For assay [13], the system named is HEK293. The experiment in a line: HEK cell cytotoxicity by LDH release, dose response, cytotoxicity control for IDE activator project, fluorescence, HEK cells (AID 588440).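 Note: cytotoxicity by LDH release measuring loss of membrane integrity.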 Type of assay: functional, cell-based. To be noted: Homo sapiens.
Assay [14] concerns HEK293. The experiment in a line: optical interference in Abeta FP readout, dose response, artefact control for IDE activator project, biochemical, fluorescence polarization (AID 588442). Format: functional, cell-based. To be noted: Homo sapiens.

Each structure is given as a SMILES string. The source made the active and inactive calls.

Sequence of Dual specificity protein kinase CLK1 (P49759 whole entry): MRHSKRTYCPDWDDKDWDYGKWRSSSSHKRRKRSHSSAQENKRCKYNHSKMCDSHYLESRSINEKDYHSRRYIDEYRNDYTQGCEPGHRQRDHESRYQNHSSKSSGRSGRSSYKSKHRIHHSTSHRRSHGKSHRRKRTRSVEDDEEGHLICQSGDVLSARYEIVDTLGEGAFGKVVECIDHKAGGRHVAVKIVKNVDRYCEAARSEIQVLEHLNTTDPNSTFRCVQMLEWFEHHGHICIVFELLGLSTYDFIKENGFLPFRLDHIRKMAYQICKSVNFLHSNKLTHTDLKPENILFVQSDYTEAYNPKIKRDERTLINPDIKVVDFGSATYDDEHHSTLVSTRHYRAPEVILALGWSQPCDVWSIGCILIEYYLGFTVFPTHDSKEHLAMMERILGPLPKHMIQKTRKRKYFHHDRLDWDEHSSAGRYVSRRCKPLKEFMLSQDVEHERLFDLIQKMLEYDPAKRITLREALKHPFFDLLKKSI
Sequence of 5-hydroxytryptamine receptor 5A (P47898 whole entry): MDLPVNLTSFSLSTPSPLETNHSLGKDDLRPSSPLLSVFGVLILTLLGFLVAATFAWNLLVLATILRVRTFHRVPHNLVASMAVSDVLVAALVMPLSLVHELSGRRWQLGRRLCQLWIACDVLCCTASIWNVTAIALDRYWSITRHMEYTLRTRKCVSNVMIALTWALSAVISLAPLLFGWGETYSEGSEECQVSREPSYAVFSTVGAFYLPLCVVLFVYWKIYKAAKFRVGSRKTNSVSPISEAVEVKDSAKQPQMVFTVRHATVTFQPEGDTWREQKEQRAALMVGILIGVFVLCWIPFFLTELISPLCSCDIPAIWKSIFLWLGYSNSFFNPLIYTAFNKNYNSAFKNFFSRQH
Sequence of Phospholipase D2 (O14939 whole entry): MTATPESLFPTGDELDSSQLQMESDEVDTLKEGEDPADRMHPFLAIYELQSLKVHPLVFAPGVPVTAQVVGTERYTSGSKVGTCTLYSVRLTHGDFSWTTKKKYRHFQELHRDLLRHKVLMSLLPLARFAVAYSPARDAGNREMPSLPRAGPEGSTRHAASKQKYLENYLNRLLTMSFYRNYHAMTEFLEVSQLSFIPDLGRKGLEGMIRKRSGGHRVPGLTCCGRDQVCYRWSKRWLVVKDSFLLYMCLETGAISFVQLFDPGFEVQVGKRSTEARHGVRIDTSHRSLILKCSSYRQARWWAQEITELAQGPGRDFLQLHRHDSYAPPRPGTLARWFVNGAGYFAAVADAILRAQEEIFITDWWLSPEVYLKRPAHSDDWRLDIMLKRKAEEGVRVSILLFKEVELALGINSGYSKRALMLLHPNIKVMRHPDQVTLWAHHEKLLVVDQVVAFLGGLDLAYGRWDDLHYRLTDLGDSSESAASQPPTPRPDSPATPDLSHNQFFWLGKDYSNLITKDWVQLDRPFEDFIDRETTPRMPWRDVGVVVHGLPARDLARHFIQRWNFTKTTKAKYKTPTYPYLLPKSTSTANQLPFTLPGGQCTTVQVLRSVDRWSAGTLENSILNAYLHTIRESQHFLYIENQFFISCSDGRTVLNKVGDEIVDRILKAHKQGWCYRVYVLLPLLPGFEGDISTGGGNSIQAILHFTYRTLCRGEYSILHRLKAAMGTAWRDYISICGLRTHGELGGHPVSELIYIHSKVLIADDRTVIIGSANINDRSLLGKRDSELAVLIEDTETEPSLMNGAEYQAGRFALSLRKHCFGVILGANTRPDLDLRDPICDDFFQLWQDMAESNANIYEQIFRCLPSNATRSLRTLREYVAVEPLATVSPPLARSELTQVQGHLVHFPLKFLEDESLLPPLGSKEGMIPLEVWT
Sequence of Delta-type opioid receptor (P41143 whole entry): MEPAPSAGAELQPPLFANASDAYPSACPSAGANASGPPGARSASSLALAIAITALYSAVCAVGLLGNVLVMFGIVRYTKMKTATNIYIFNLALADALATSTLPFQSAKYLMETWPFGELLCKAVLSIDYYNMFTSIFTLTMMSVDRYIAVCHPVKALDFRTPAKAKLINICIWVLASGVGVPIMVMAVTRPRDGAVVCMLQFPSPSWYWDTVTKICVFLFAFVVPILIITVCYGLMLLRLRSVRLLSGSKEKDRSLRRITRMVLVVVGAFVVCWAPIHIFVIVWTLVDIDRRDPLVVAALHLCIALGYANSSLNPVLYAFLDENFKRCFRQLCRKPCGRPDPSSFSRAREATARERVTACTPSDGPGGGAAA
Sequence of Mu-type opioid receptor (P35372 whole entry): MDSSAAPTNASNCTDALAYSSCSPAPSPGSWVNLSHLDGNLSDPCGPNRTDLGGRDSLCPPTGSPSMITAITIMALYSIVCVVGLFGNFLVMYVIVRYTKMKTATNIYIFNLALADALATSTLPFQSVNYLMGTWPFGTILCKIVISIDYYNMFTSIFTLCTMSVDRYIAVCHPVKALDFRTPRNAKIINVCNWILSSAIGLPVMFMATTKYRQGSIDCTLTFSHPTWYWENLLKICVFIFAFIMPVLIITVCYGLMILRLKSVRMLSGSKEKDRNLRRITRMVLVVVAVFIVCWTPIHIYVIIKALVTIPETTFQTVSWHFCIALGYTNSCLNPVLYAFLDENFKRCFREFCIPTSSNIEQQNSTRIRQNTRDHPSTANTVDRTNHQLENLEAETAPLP
Sequence of FAD-linked sulfhydryl oxidase ALR (P55789 whole entry): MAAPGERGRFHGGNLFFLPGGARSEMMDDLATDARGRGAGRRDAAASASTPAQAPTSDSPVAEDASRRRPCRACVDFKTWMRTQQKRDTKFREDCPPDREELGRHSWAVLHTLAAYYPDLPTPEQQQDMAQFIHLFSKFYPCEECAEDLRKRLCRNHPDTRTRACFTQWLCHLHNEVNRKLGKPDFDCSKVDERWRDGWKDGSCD

For `CC(=O)Nc1ccc(S(=O)(=O)/N=C2\C(=O)c3ccccc3C(O)=C2N2CCN(Cc3ccccc3)CC2)cc1`, the EC50 in assay [1], in assay [2] and in assay [3] was > 92.5 µM (inactive) throughout.
On to `CN(N=O)c1ccc(CC2CCc3ccccc32)cc1` (stereo not given), for which the AC50 in assay [4] was 79.8 µM (active). Moreover, the IC50 in [5] was 58.5 µM (inactive).
As for `O=C(NCCN1CCC(n2nnc3ccccc32)CC1)c1ccc2ccccc2c1`, the IC50 in assay [6] is 2.7 µM (active); in [7] it was 1.75 µM (active).
Consider `CCc1ccc(NC(=O)N(CCCN2CCOCC2)Cc2cccs2)cc1`, for which the EC50 in assay [1], in [2] and in [3] was > 92.5 µM (inactive) each time.
Consider `O=C(Nc1nc2c(s1)CCCC2)c1ccc(N2C(=O)CCC2=O)cc1`, for which the AC50 is 1.11 µM (active) in [8], 7.74 µM (active) in assay [9] and 5.26 µM (active) in assay [10].
For the molecule `C[C@@H](CN1CCC2(CC1)C(=O)NCN2c1ccc(F)c(F)c1)NC(=O)c1ccc(Cl)cc1`, the IC50 is 0.031 µM (active) in assay [6] and 0.125 µM (active) in [7].
Turning to `CN(C)CCCN(C(=O)CCSc1ccccc1)c1nc2cc3c(cc2s1)OCO3`, the EC50 in [11], in assay [12] and in assay [14] was > 54.7 µM (inactive) each time. For the same molecule, in assay [13], the IC50 is 33.9 µM (inactive).
Take `c1cc(-c2ccc3c(c2)OCO3)nc(Nc2ccc3c(c2)OCO3)n1`: the concentration at half-maximal activity (AC50) in assay [9] was 2.04 µM (active).
